{"source": "patent US20260240844A1", "about": "“INHIBITORS OF CHD1L AND USES THEREOF” (The Regents of the University of Colorado, a body corporate, priority 2023, published 2026)", "key": {"[1]": {"tested_on": "caspase-3", "assay": "Caspase-3 cleavage activation", "assay_type": "cell-based", "settings": "for caspase-3 cleavage activation: single agent", "procedure": "AIF in the cytoplasm and nucleus was examined. […] Finally, caspase-3 cleavage activation, an apoptosis marker, was measured (FIG. 16D).\nCHD1Li-mediated PAR translocation to the cytoplasm activates PARthanatos as a cell death mechanism. Parthanatos is a form a programmed cell death different from apoptosis and known to be mediated by PARP1 overactivation. The unique events occurring during parthanatos are: PARP1 rapid activation, accumulation of PAR and nuclear translocation of apoptosis inducing factor (AIF). Without being bound by any particular theory, accumulation of PAR in the cytoplasm caused by CHD1Li can also mediate parthanatos. To better understand the link between PAR translocation to the cytoplasm and cell death, immunofluorescence to measure the activation of caspase-3 and the subcellular localization of AIF after treatment with SOC drugs and Compound 6 in SUM49PT cells was used. […] Without being bound by any particular theory, this might be caused by the mitochondrial outer membrane permeabilization, which triggers release of mitochondrial proteins like AIF or cytochrome c, activating caspase-3 by its cleavage and leading to apoptosis. […] Moreover, when combining CHD1L inhibition with SOC drugs, the cell death mechanism shifts from apoptosis to parthanatos, evidenced by a significant increase in AIF nuclear translocation and decrease in activation of caspase-3 (FIG. 25D-E)."}, "[2]": {"tested_on": "SUM149PT cells", "assay": "Phosphatidylserine externalization, membrane integrity and DNA fragmentation", "assay_type": "cell-based", "procedure": "Phosphatidylserine externalization and membrane integrity—phosphatidylserine externalization and membrane integrity kinetics were analyzed using the RealTime-Glo™ Annexin V Apoptosis and Necrosis Assay (Promega, JA1012) according to the manufacturer's instructions. 8,000 cells were seeded per well in 96 well solid bottom white plates (Corning) in 100 μL and allowed to attach overnight. Then, 75 μL of media were removed, followed by the addition of 25 μL of the test compounds at 4× desired final concentration and 50 μL of the 2× detection reagent. Luminescence and fluorescence were measured overtime using an EnVision plate reader (PerkinElmer). No-cell and medium-only controls were used for background correction.\nPARthanatos might be accompanied by other events also occurring during apoptosis or necrosis like mitochondrial depolarization, phosphatidylserine (PS) externalization, loss of membrane integrity and large-scale DNA fragmentation. To better characterize this mechanism, PS externalization and membrane integrity were studied using a real-time multiplex assay that monitors Annexin V binding to PS and simultaneous loss of cell membrane integrity with a membrane impermeable DNA binding dye. […] In contrast, CHD1Li caused a rapid and simultaneous increase of both when combined with SOC drugs, shifting the kinetics to a more non-apoptotic phenotype."}, "[3]": {"tested_on": "SW620 tumor organoids", "settings": "SW620 tumor organoids"}, "[4]": {"biological_target": "PARP2 (Homo sapiens, UniProt Q9UGN5)", "sequence (Q9UGN5 whole entry)": "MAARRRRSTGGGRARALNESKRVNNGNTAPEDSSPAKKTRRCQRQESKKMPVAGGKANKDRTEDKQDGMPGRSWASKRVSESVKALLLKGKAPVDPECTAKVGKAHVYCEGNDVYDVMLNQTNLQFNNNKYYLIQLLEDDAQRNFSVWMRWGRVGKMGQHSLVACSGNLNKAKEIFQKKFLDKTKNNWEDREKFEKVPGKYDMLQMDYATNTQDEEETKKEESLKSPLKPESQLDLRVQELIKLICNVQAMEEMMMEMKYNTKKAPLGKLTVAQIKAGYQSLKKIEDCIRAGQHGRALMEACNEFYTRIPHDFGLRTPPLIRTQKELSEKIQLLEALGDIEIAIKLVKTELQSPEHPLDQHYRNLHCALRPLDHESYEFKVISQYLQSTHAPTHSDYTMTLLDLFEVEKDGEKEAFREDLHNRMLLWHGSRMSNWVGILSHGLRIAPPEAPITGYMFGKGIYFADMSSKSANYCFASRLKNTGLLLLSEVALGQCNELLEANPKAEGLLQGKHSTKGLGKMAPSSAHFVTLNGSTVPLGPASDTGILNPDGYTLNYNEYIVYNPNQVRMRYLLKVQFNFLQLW", "assay": "PARP2 trapping (in situ subcellular fractionation, immunofluorescence)", "assay_type": "cell-based", "set-up": "endogenous in cells; host or cells: SUM149PT", "settings": "SUM149PT cells, 0.01% MMS, 4 h", "protocol": "PARP1/2 and CHD1L trapping—PARP1, PARP2 and CHD1L trapping were assessed. SUM149PT cells were plated at a density of 20,000 cells per well into clear bottom black 96-well plates (PerkinElmer). […] After 4 h incubation, cell media was aspirated and cells were treated for 10 min at 4° C. with cold cytoskeleton (CSK) buffer (10 mM PIPES pH=6.8, 300 mM sucrose, 200 mM NaCl, 3 mM MgCl2) supplemented with 0.6% Triton X-100. […] PARP1 (anti-PARP1 antibody, 1:2000, O/N, 4° C.), PARP2 (anti-PARP2, 1:1000, O/N, 4° C.) and CHD1L (anti-CHD1L, 1:1000, O/N, 4° C.) primary antibodies were then added in antibody dilution buffer (2% BSA in PBS) and incubated O/N at 4° C.\nTo study the accumulation of bound PARP1/2 on chromatin, in situ subcellular fractioning of SUM149PT cells co-treated with 0.01% methyl methanesulfonate (MMS) and the drug of interest was used, followed by immunofluorescence."}, "[5]": {"tested_on": "MiaPaca2 cells", "assay": "MiaPaca2 cell viability, combination with chemotherapy", "assay_type": "cell-based", "settings": "for IC50: Homo sapiens, MIA PaCa-2, MiaPaca2 cells, read-out: IC50 5-FU; for calculated mean synergy score: MiaPaca2 cells", "source_text": "The cell viability assays and Bliss synergy analyses are as described above in Examples 1-9 and 11-12."}, "[6]": {"tested_on": "SW948 tumor organoids", "assay": "cells", "procedure": "ATM is an important protein involved in the initial stages of the DNA damage response. […] ATM mutations are important markers being developed to identify metastatic CRC (mCRC) patients that may be sensitive to DNA damaging chemotherapy.\nSynergy was assessed using the Bliss model."}, "[7]": {"tested_on": "SW620 Parental cells", "assay": "SW620 Parental cell viability, combination with chemotherapy", "assay_type": "cell-based", "settings": "Homo sapiens, SW-620, SW620 cells, read-out: IC50 5-FU"}, "[8]": {"biological_target": "T1, full length CHD1L (Homo sapiens, UniProt Q86WJ1)", "T1 construct": "host or cells: Rosetta 2 (DE3) pLysS cells (E. coli) for CHD1L", "T1 sequence (Q86WJ1 16-879)": "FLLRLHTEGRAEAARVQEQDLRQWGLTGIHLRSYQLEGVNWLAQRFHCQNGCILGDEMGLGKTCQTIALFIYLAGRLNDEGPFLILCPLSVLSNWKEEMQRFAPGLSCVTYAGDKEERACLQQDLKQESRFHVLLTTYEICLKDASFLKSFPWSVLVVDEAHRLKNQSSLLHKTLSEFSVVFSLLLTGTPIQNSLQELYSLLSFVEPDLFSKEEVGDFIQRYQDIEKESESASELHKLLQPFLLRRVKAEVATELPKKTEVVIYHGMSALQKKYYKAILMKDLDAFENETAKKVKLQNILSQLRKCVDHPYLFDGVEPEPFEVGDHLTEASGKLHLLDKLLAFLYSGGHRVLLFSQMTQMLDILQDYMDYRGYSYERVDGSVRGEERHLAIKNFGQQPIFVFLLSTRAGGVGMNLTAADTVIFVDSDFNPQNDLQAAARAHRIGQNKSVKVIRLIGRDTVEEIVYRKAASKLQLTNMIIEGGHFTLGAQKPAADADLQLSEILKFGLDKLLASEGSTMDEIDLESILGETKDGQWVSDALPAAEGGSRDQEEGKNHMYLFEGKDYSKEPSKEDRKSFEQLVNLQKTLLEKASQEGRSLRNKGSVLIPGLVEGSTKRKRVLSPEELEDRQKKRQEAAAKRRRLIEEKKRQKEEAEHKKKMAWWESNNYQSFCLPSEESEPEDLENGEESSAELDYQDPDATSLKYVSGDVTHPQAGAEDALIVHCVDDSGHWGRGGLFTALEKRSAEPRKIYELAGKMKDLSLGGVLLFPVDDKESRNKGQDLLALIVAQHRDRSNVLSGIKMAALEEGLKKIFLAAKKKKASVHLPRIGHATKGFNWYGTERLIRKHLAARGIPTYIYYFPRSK", "assay": "Nucleosome remodeling FRET assay", "assay_type": "biochemical", "settings": "full length-CHD1L pre-incubated with 10 μM for 10 minutes", "source_text": "For that, mononucleosomes composed of a human histone octamer containing a Cy5-tagged H2A, wrapped by a Cy3-labelled DNA template (EpiCypher, Cat #16-4201) were used. […] Right after the addition of ATP the assay was monitored overtime using Cy3 excitation (531 nm) and simultaneous detection of Cy3 (595 nm) and Cy5 (685 nm) emission signals using an EnVision plate reader (PerkinElmer). Data are expressed as the ratio of Cy3/Cy5 signal overtime.\nInhibition of nucleosome remodeling by CHD1L inhibitors blocks DDR signaling. CHD1L's main role is chromatin remodeling and DNA relaxation, moving from a tightly condensed DNA to an accessible state allowing for DNA transcription and repair. Thus, the effect of CHD1L ATPase inhibition on its nucleosome remodeling activity using a FRET-based assay was used. The FRET assay measures the distancing of Cy3 on DNA and Cy5 on the H2A histone upon nucleosome sliding."}, "[9]": {"tested_on": "MCF-7 cells", "assay": "Tumor organoid viability, MCF-7", "assay_type": "cell-based", "settings": "Homo sapiens, MCF7; MCF-7 (luminal breast cancer); read-out: IC50, tumor organoid viability, single agent", "source_text": "The tumor organoid viability assay is as described in Example 9."}, "[10]": {"assay": "Toxicity in mice", "assay_type": "in vivo", "description": "Organs and blood were harvested and sent to the Colorado State University Flint Animal Cancer Center for histopathological analysis by an independent certified veterinary pathologist with expertise in cancer chemotherapy."}, "[11]": {"tested_on": "SW620 cells and HCT116 cells", "assay": "CHD1L-mediated TCF-transcription and CSC stemness (clonogenic colonies)"}, "[12]": {"tested_on": "Colo679 cells", "assay": "DDR biomarkers (pATM, RAD51, 53BP1, γ-H2AX) in Colo679 cells", "assay_type": "cell-based", "settings": "4 μM", "source_text": "Etoposide was used as a control to show upregulation of DDR pathway biomarkers."}, "[13]": {"settings": "SW948 tumor organoids, combined with 5FU"}, "[14]": {"settings": "SW948 tumor organoids, combined with SN38"}}, "note": "Read-outs that look alike come from different tables or passages of the source.", "data": [{"smiles": "COc1cccc2c1C(=O)c1c(O)c3c(c(O)c1C2=O)C[C@@](O)(C(=O)CO)C[C@@H]3O[C@H]1C[C@H](N)[C@H](O)[C@H](C)O1", "note": "[doxorubicin]", "values": [{"measurement": "caspase-3 cleavage activation", "setting": "[1]", "result": "activation of apoptosis by cleavage of caspase-3"}, {"measurement": "phosphatidylserine externalization / membrane integrity kinetics", "setting": "[2]; real-time Annexin V assay", "result": "apoptotic kinetic phenotype"}]}, {"smiles": "O=C(c1cc(Cc2n[nH]c(=O)c3ccccc23)ccc1F)N1CCN(C(=O)C2CC2)CC1", "note": "[olaparib]", "values": [{"measurement": "enhancement of olaparib potency", "setting": "[3]; combined with Compound 6.11", "result": "~ 355 fold"}, {"measurement": "PARP2 trapping", "setting": "[4]", "result": "trapped in a dose-dependent manner both PARP1 and PARP2"}]}, {"smiles": "O=c1[nH]cc(F)c(=O)[nH]1", "note": "[Compound 5-FU, 5-fluorouracil]", "values": [{"measurement": "IC50", "setting": "[5]; Compound 6.11 0 μM", "result": 238, "unit": "µM"}, {"measurement": "IC50", "setting": "[5]; Compound 6.11 4 μM", "result": 74.4, "unit": "µM"}, {"measurement": "IC50", "setting": "[5]; Compound 6.11 4.25 μM", "result": 68.7, "unit": "µM"}, {"measurement": "IC50", "setting": "[5]; Compound 6.11 4.5 μM", "result": 38.3, "unit": "µM"}, {"measurement": "IC50", "setting": "[5]; Compound 7 0 μM", "result": 68.2, "unit": "µM"}, {"measurement": "IC50", "setting": "[5]; Compound 7 7 μM", "result": 61.8, "unit": "µM"}, {"measurement": "IC50", "setting": "[5]; Compound 7 8 μM", "result": 56.7, "unit": "µM"}, {"measurement": "IC50", "setting": "[5]; Compound 7 9 μM", "result": 46.7, "unit": "µM"}, {"measurement": "IC50", "setting": "[5]; Compound 8 0 μM", "result": 55.6, "unit": "µM"}, {"measurement": "IC50", "setting": "[5]; Compound 8 2 μM", "result": 66.2, "unit": "µM"}, {"measurement": "IC50", "setting": "[5]; Compound 8 2.25 μM", "result": 60.4, "unit": "µM"}, {"measurement": "IC50", "setting": "[5]; Compound 8 2.5 μM", "result": 53.8, "unit": "µM"}, {"measurement": "IC50", "setting": "[5]; Compound 12 0 μM", "result": 69.7, "unit": "µM"}, {"measurement": "IC50", "setting": "[5]; Compound 12 3.75 μM", "result": 32, "unit": "µM"}, {"measurement": "IC50", "setting": "[5]; Compound 12 4 μM", "result": 16.3, "unit": "µM"}, {"measurement": "IC50", "setting": "[5]; Compound 12 4.25 μM", "result": 15.9, "unit": "µM"}, {"measurement": "IC50", "setting": "[5]; Compound 13 0 μM", "result": 57.2, "unit": "µM"}, {"measurement": "IC50", "setting": "[5]; Compound 13 5 μM", "result": 60.9, "unit": "µM"}, {"measurement": "IC50", "setting": "[5]; Compound 13 6 μM", "result": 58.5, "unit": "µM"}, {"measurement": "IC50", "setting": "[5]; Compound 13 […]", "result": 50.7, "unit": "µM"}, {"measurement": "IC50", "setting": "[6]; Homo sapiens, SW948, read-out: IC50 of chemotherapy alone", "result": 302, "unit": "µM"}, {"measurement": "increase in potency of the chemotherapy", "setting": "[6]; SW948 tumor organoids, combined with Compound 6", "result": "~300", "unit": "fold"}, {"measurement": "IC50", "setting": "[7]; Compound 11 0 μM", "result": 20.8, "unit": "µM"}, {"measurement": "IC50", "setting": "[7]; Compound 11 2 μM", "result": 59.5, "unit": "µM"}, {"measurement": "IC50", "setting": "[7]; Compound 11 2.25 μM", "result": 54.4, "unit": "µM"}, {"measurement": "IC50", "setting": "[7]; Compound 11 2.5 μM", "result": 47.7, "unit": "µM"}, {"measurement": "IC50", "setting": "[7]; Compound 12 2 μM", "result": 41.4, "unit": "µM"}, {"measurement": "IC50", "setting": "[7]; Compound 12 2.25 μM", "result": 23.9, "unit": "µM"}, {"measurement": "IC50", "setting": "[7]; Compound 12 2.5 μM", "result": 15.4, "unit": "µM"}]}, {"smiles": "Cc1cc(Nc2ccc(NC(=O)Cc3cccs3)cc2)nc(N2CCCC2)n1", "note": "[Compound 6, N-(4-((6-methyl-2-(pyrrolidin-1-yl)pyrimidin-4-yl)amino)phenyl)-2-(thiophen-2-yl)acetamide]", "values": [{"measurement": "DNA fragmentation (Hoechst 33342)", "setting": "[2]", "result": "large-scale fragmentation of DNA"}, {"measurement": "nucleosome remodeling rate", "setting": "[8]", "result": "reduction of the remodeling rate"}]}, {"smiles": "Cc1cc(Nc2ccc(NC(=O)Cc3cc(Br)cs3)cc2)nc(N2CCCC2)n1", "note": "[Compound 6.11, 2-(4-bromothiophen-2-yl)-N-(4-((6-methyl-2-(pyrrolidin-1-yl)pyrimidin-4-yl)amino)phenyl)acetamide]", "values": [{"measurement": "synergy score", "setting": "[3]; Compound 6.11 2.75 μM combined with 5FU", "result": "~ 30"}, {"measurement": "IC50", "setting": "[9]", "result": "~1.8", "unit": "µM"}, {"measurement": "calculated mean synergy score", "setting": "[5]; combined with 5-FU", "result": "about 42"}, {"measurement": "calculated mean synergy score", "setting": "[5]; combined with SN-38", "result": "about 29"}, {"measurement": "caspase-3 activation", "setting": "[1]; Compound 6.11 combined with SN-38", "result": "enhanced caspase-3 activation"}, {"measurement": "caspase-3 cleavage activation", "setting": "[1]", "result": "did not induce caspase-3 activation"}, {"measurement": "increase in PARP2 trapping", "setting": "[4]", "result": 2, "unit": "fold"}, {"measurement": "toxicity by complete blood count (CBC) panel and H&E histopathology of liver, heart, bone marrow", "setting": "[10]; mice, 100 mg/kg Compound 6.11 daily for 30 days", "result": "no toxicity"}, {"measurement": "toxicities", "setting": "[10]; mice, daily dosing up to 100 mg/kg, preliminary studies", "result": "no significant toxicities"}, {"measurement": "toxicity by CBC chemistry and histology of liver, heart, bone marrow", "setting": "[10]; nude mice, PO 100 mg/kg 1×/day 7-days/week, alone or combined with irinotecan", "result": "no toxicity"}, {"measurement": "Mean Synergy Score", "setting": "[6]; [13]", "result": "~ 72"}, {"measurement": "maximum synergy score", "setting": "[6]; [13]", "result": "~82"}, {"measurement": "Mean Synergy Score", "setting": "[6]; [14]", "result": "~ 74"}, {"measurement": "maximum synergy score", "setting": "[6]; [14]", "result": "~100"}, {"measurement": "CHD1L-mediated TCF-transcription and CSC stemness", "setting": "[11]", "result": "dose dependent inhibition"}, {"measurement": "amount of 53BP1", "setting": "[12]", "result": "decrease the amount of 53BP1"}, {"measurement": "amount of RAD51", "setting": "[12]", "result": "increase the amount of RAD51"}, {"measurement": "amount of pATM", "setting": "[12]", "result": "minimal effect"}, {"measurement": "γ-H2AX concentrations", "setting": "[12]", "result": "decreased"}]}]}
